Biological target: T1, human FFAR1 (GPR40) (Homo sapiens, UniProt O14842)
T1 construct: Flag; expressed in transfected cells; host or cells: HEK293T
Assay: NFAT-RE-based reporter gene activity assay (Dual-Glo luciferase) for GPR40 agonistic activity in co-transfected HEK293T cells
Format: cell-based
Conditions: 4-hour treatment; for Efficacy (%): class symbols
Procedure, shortened: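 HEK293T cells co-transfected with human FFAR1, NFAT-RE firefly luciferase and TK-Renilla plasmids; 24 h later treated 4 h with 10 half-log compound dilutions from 1 µM. Firefly/Renilla ratio normalised to DMSO; EC50 from four-parameter fit.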

T1 sequence (O14842 whole entry): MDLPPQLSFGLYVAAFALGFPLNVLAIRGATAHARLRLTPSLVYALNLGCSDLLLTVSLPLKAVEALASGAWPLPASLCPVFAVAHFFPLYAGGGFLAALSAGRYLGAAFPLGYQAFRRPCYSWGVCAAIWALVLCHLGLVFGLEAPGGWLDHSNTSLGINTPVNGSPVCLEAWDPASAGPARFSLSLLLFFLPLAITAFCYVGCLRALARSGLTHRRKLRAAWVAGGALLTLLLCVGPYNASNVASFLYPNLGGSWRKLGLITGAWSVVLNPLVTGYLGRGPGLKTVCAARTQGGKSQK

Row | Compound | EC50 [nM] | Efficacy (%)
1 | COc1cccc(N2CCC(c3oc4cc([C@@H](CC(=O)O)C5CC5)ccc4c3C(C)OCC3CC3)CC2)c1 (stereo partly drawn) [Compound 417] | 100 to 500 | ††† (Efficacy (%) > 150)
2 | COc1ccc(F)c(N2CCC(c3oc4cc(C(CC(=O)O)C5CC5)ccc4c3-c3cccc(N(CC(C)(C)C)C(C)=O)c3)CC2)c1 (stereo not drawn) [Compound 190] | 100 to 500 | †† (150 ≥ Efficacy (%) > 100)
3 | COc1ccc(F)c(N2CCC(c3oc4cc([C@@H](CC(=O)O)C5CC5)ccc4c3C(=O)Nc3cc(C(F)(F)F)ccc3Cl)CC2)c1 [Compound 340] | < 10 | ††† (Efficacy (%) > 150)
4 | COc1ccc(F)c(N2CCC(c3oc4cc([C@H](C5CC5)C(C)C(=O)O)ccc4c3-c3ccc(C(C)(C)C)cc3)CC2)c1 (stereo partly drawn) [Compound 218] | 100 to 500 | ††† (Efficacy (%) > 150)
5 | COc1cccc(N2CCC(c3oc4cc([C@@H](CC(=O)O)C5CC5)ccc4c3CN(CC(C)(C)C)C(C)=O)CC2)c1 [Compound 442] | 100 to 500 | †† (150 ≥ Efficacy (%) > 100)
6 | COc1cccc(N2CCC(c3oc4cc([C@@H](CC(=O)O)C5CC5)ccc4c3-c3cc4ccccc4[nH]3)CC2)c1 [Compound 150] | 100 to 500 | †† (150 ≥ Efficacy (%) > 100)
7 | COc1cccc(N2CCC(c3oc4cc([C@@H](CC(=O)O)C5CC5)ccc4c3C(=O)Nc3ccccc3C)CC2)c1 [Compound 239] | 10 to 100 | ††† (Efficacy (%) > 150)
8 | COc1cccc(N2CCC(c3oc4cc([C@@H](CC(=O)O)C5CC5)ccc4c3C(=O)Nc3ccccc3-c3ccccc3)CC2)c1 [Compound 241] | 100 to 500 | †† (150 ≥ Efficacy (%) > 100)
9 | Cc1cccc(N2CCC(c3oc4cc(C(CC(=O)O)C5CC5)ccc4c3-c3cccc(C(C)(C)C)c3)CC2)c1 (stereo not drawn) [Compound 4] | 100 to 500 | † (100 ≥ Efficacy (%) > 50)
10 | COc1cccc(N2CCC(c3oc4cc(C(CC(=O)O)C5CC5)ccc4c3C(=O)Nc3noc4ccccc34)CC2)c1 (stereo not drawn) [Compound 296] | 100 to 500 | ††† (Efficacy (%) > 150)
11 | COc1cccc(N2CCC(c3oc4cc(C(CC(=O)O)C5CC5)ccc4c3-c3nnc(C4(C)CC4)o3)CC2)c1 (stereo not drawn) [Compound 134] | 100 to 500 | † (100 ≥ Efficacy (%) > 50)
12 | O=C(O)C[C@H](c1ccc2c(C(=O)Nc3cc(F)ccc3Cl)c(C3CCN(c4ccc5c(c4)OCO5)CC3)oc2c1)C1CC1 [Compound 333] | ≤ 10 | †† (150 ≥ Efficacy (%) > 100)
13 | COc1ccc(C(=O)N(C)CC(C)(C)C)c(N2CCC(c3oc4cc([C@@H](CC(=O)O)C5CC5)ccc4c3-c3cnn(C(C)(C)C)c3)CC2)c1 [Compound 92] | 100 to 500 | ††† (Efficacy (%) > 150)
14 | COc1cccc(N2CCC(c3oc4cc(C(CC(=O)O)C5CC5)ccc4c3C(=O)Nc3nccn3C)CC2)c1 (stereo not drawn) [Compound 304] | 100 to 500 | ††† (Efficacy (%) > 150)
15 | COc1ccc(F)c(N2CCC(c3oc4cc([C@@H](CC(=O)O)C5CC5)ccc4c3C(=O)Nc3cc(F)ccc3Cl)CC2)c1 [Compound 341] | ≤ 10 | †† (150 ≥ Efficacy (%) > 100)
16 | COc1cccc(N2CCC(c3oc4cc([C@@H](CC(=O)O)C5CC5)ccc4c3C(=O)Nc3cc(C(C)=O)ccc3Cl)CC2)c1 [Compound 283] | 10 to 100 | ††† (Efficacy (%) > 150)
17 | COc1cccc(N2CCC(c3oc4cc(C(CC(=O)O)C5CC5)ccc4c3C(=O)Nc3ccccc3C(F)(F)F)CC2)c1 (stereo not drawn) [Compound 237] | 10 to 100 | †† (150 ≥ Efficacy (%) > 100)
18 | COc1cccc(N2CCC(c3oc4cc([C@@H](CC(=O)O)C5CC5)ccc4c3C(=O)Nc3ccccc3C)CC2)c1F [Compound 324] | ≤ 10 | †† (150 ≥ Efficacy (%) > 100)
19 | COc1ccc(F)c(N2CCC(c3oc4cc([C@@H](CC(=O)O)C5CC5)ccc4c3C/C=C/C3CC3)CC2)c1 [Compound 373] | 10 to 100 | †† (150 ≥ Efficacy (%) > 100)
20 | COc1cccc(N2CCC(c3oc4cc(C(CC(=O)O)C5CC5)ccc4c3C(=O)Nc3ccccc3C#N)CC2)c1 (stereo not drawn) [Compound 236] | 10 to 100 | ††† (Efficacy (%) > 150)
21 | CCCCCCCC(C)(C)c1nnc(-c2c(C3CCN(c4cccc(OC)c4)CC3)oc3cc(C(CC(=O)O)C4CC4)ccc23)o1 (stereo not drawn) [Compound 451] | 10 to 100 | †† (150 ≥ Efficacy (%) > 100)
22 | COc1cccc(N2CCC(c3oc4cc([C@@H](CC(=O)O)C5CC5)ccc4c3-c3cccc(C)n3)CC2)c1 [Compound 147] | 10 to 100 | ††† (Efficacy (%) > 150)
23 | CCCCC(c1ccccc1)c1c(C2CCN(c3cccc(OC)c3)CC2)oc2cc([C@@H](CC(=O)O)C3CC3)ccc12 (stereo partly drawn) [Compound 386] | 10 to 100 | †† (150 ≥ Efficacy (%) > 100)
24 | COc1cccc(N2CCC(c3oc4cc([C@H](C5CC5)C(C)(C)C(N)=O)ccc4c3-c3cnn(C(C)(C)C)c3)CC2)c1 [Compound 71] | 100 to 500 | †† (150 ≥ Efficacy (%) > 100)

Row | Compound | EC50 [nM] | Efficacy (%)
25 | COc1cccc(N2CCC(c3oc4cc(C(CC(=O)O)C5CC5)ccc4c3-c3cnn(C(C)(C)C)c3)CC2)n1 (stereo not drawn) [Compound 79] | 100 to 500 | †† (150 ≥ Efficacy (%) > 100)
26 | CCC(CC(=O)O)c1ccc2c(-c3cnn(C(C)(C)C)c3)c(C3CCN(c4cccc(OC)c4)CC3)oc2c1 (stereo not drawn) [Compound 66] | 100 to 500 | †† (150 ≥ Efficacy (%) > 100)
27 | COc1ccc(F)c(N2CCC(c3oc4cc(C(CC(=O)O)C5CC5)ccc4c3CC(C)OC)CC2)c1 (stereo not drawn) [Compound 394] | > 500 | †† (150 ≥ Efficacy (%) > 100)
28 | CCC(CC(=O)O)c1ccc2c(-c3cccc(C(C)(C)C)c3)c(C3CCN(c4cc(OC)ccc4F)CC3)oc2c1 (stereo not drawn) [Compound 233] | 100 to 500 | †† (150 ≥ Efficacy (%) > 100)
29 | CCCC(C)(C)c1nnc(-c2c(C3CCN(c4cccc(OC)c4)CC3)oc3cc(C(CC(=O)O)C4CC4)ccc23)o1 (stereo not drawn) [Compound 129] | 10 to 100 | †† (150 ≥ Efficacy (%) > 100)
30 | COc1cccc(N2CCC(c3oc4cc([C@@H](CC(=O)O)C5CC5)ccc4c3-c3cccc(NC(C)C)c3)CC2)c1 [Compound 34] | 10 to 100 | †† (150 ≥ Efficacy (%) > 100)
31 | COc1cccc(N2CCC(c3oc4cc([C@@H](CC(=O)O)C5CC5)ccc4c3CNCC(C)(C)C)CC2)c1 [Compound 435] | 10 to 100 | †† (150 ≥ Efficacy (%) > 100)
32 | CCC(c1ccccc1OC)N1CCC(c2oc3cc(C(CC(=O)O)C4CC4)ccc3c2C(=O)Nc2ccccc2F)CC1 (stereo not drawn) [Compound 326] | 100 to 500 | †† (150 ≥ Efficacy (%) > 100)
33 | COc1cccc(N2CCC(c3oc4cc(C(CC(=O)O)C5CC5)ccc4c3-c3csc(C(C)C)n3)CC2)c1 (stereo not drawn) [Compound 106] | 10 to 100 | †† (150 ≥ Efficacy (%) > 100)
34 | COc1ccc(F)c(N2CCC(c3oc4cc([C@H](C5CC5)C(C)C(=O)O)ccc4c3-c3cccc(C(C)(C)C)c3)CC2)c1 (stereo partly drawn) [Compound 217] | 10 to 100 | †† (150 ≥ Efficacy (%) > 100)
35 | COc1ccc(OC)c(N2CCC(c3oc4cc(C(CC(=O)O)C5CC5)ccc4c3-c3cnn(C(C)(C)C)c3)CC2)c1 (stereo not drawn) [Compound 85] | 100 to 500 | †† (150 ≥ Efficacy (%) > 100)
36 | COc1cccc(N2CCC(c3oc4cc([C@@H](CC(=O)O)C5CC5)ccc4c3C(C)OCC3CCCC3)CC2)c1 (stereo partly drawn) [Compound 419] | 10 to 100 | ††††
37 | COc1ccc(F)c(N2CCC(c3oc4cc(C(CC(=O)O)C5CC5)ccc4c3C(=O)NCC(C)(C)C)CC2)c1 (stereo not drawn) [Compound 306] | 100 to 500 | †† (150 ≥ Efficacy (%) > 100)
38 | COc1cccc(N2CCC(c3oc4cc([C@H](C5CC5)C(C)C(=O)O)ccc4c3-c3cnn(C(C)(C)C)c3)CC2)c1 (stereo partly drawn) [Compound 55] | ≤ 10 | †† (150 ≥ Efficacy (%) > 100)
39 | COc1cccc(N2CCC(c3oc4cc(C(CC(=O)O)C5CC5)ccc4c3-c3ccc(C(C)(C)C)cc3)CC2)c1 (stereo not drawn) [Compound 13] | 100 to 500 | ††† (Efficacy (%) > 150)
40 | CNC(=O)c1cc(-c2c(C3CCN(c4cccc(OC)c4)CC3)oc3cc(C(CC(=O)O)C4CC4)ccc23)cn1C (stereo not drawn) [Compound 82] | 100 to 500 | † (100 ≥ Efficacy (%) > 50)
41 | COc1cccc(N2CCC(c3oc4cc(C(CC(=O)O)C5CC5)ccc4c3C(=O)N3CCCC3C)CC2)c1 (stereo not drawn) [Compound 359] | 100 to 500 | † (100 ≥ Efficacy (%) > 50)
42 | COc1cccc(N2CCC(c3oc4cc(C(CC(=O)O)C5CC5)ccc4c3C(=O)Nc3cc(-c4ccccc4)nn3C)CC2)c1 (stereo not drawn) [Compound 302] | 100 to 500 | † (100 ≥ Efficacy (%) > 50)
43 | COc1ccc(F)c(N2CCC(c3oc4cc([C@@H](CC(=O)O)C5CC5)ccc4c3/C=C/C(C)(C)O)CC2)c1 [Compound 369] | 100 to 500 | † (100 ≥ Efficacy (%) > 50)
44 | COc1cccc(N2CCC(c3oc4cc([C@@H](CC(=O)O)C5CC5)ccc4c3C(=O)Nc3cc(N4CCCCC4)ccc3Cl)CC2)c1 [Compound 284] | ≤ 10 | †† (150 ≥ Efficacy (%) > 100)
45 | COc1cccc(N2CCC(c3oc4cc([C@@H](CC(=O)O)C5CC5)ccc4c3C(C)OCC(C)(C)C)CC2)c1 (stereo partly drawn) [Compound 411] | 10 to 100 | †† (150 ≥ Efficacy (%) > 100)
46 | COc1cccc(N2CCC(c3oc4cc([C@@H](CC(=O)O)C5CC5)ccc4c3C3OCC(C)(C)CO3)CC2)c1 [Compound 399] | 100 to 500 | †† (150 ≥ Efficacy (%) > 100)
47 | COc1cccc(N2CCC(c3oc4cc([C@@H](CC(=O)O)C5CC5)ccc4c3C(OCC(C)C)c3ccc(F)cc3)CC2)c1 (stereo partly drawn) [Compound 431] | 100 to 500 | †† (150 ≥ Efficacy (%) > 100)
48 | COc1cccc(N2CCC(c3oc4cc(C(CC(=O)O)C5CC5)ccc4c3C(=O)Nc3cccc(Br)c3)CC2)c1 (stereo not drawn) [Compound 247] | 100 to 500 | ††† (Efficacy (%) > 150)

From patent EP4682145A1, “BENZOHETEROCYCLIC COMPOUND, AND PREPARATION METHOD THEREFOR AND USE THEREOF” (Cascade Pharmaceuticals, Inc., priority 2023, dated 2024)
